Reference: PMC10584170, “Machine learning-based phenotypic imaging to characterise the targetable biology of Plasmodium falciparum male gametocytes for the development of transmission-blocking antimalarials” (PLOS Pathogens, 2023)
Where two headings read alike, the source gives them in different places.

Legend:
[1] = test system: P. falciparum male gametocytes; assay: P. falciparum Dual Gamete Formation Assay (PfDGFA), male readout (exflagellation); assay type: cell-based, Plasmodium falciparum NF54; conditions: for Selectivity Ratio M: HepG2 Tox50 versus male IC50; for inhibition at 2 µM / IC50: Plasmodium falciparum; for IC50: PfDGFA, 24 h incubation with gametocytes before induction, exflagellation readout, read-out: Male IC50; for Activity: hit = >50% inhibition in male or female readout in at least 3 replicates, 0 = no class assigned
Protocol: (§1) P. falciparum NF54 (originally isolated from an imported malaria case in the Netherlands in the 1980s; BEI Resources, cat. No. MRA-1000) strain asexual parasites were maintained between 0.3–5% parasitaemia by regular passage in complete culture medium (RPMI supplemented with 25 mM HEPES, 50 μg ml^−1 hypoxanthine, 4.8 g l^−1 NaHCO3, 2mM L-glutamine, 5% pooled type AB serum, 0.5% Albumax II (Gibco)) at 4% haematocrit in washed whole blood (National Blood and Transfusion Service or Centro de Transfusiones de la Comunidad de Madrid CTCM) under a 1% O2/3% CO2/96% N2 environment. Gametocytes were induced by seeding culture flasks at 2% parasitaemia/4% haematocrit and subjecting them to daily medium changes for 14 days whilst maintaining a temperature of 37°C at all times. On Day 14, the maturity of gametocytes was assessed by quantifying male gametogenesis (exflagellation). A 20 μl sample of gametocyte culture was mixed with equal volume of ookinete medium (complete culture medium supplemented with 0.1 μM xanthurenic acid) at room temperature and transferred to a haemocytometer. After 20 min at room temperature, exflagellation was accurately quantified as described in Delves et al. 2016 [17].
(§2) The Pf DGFA was performed as described in Delves et al. 2016 [17]. […] Plates were then incubated for 24 h at 37°C in a humidified box under a 1% O2/3% CO2/96% N2 gas mix. Gametogenesis was triggered by addition of 10 μl per well of ookinete medium + 0.27 μg ml^-1 Cy3-labelled anti-Pfs25 antibody. Plates were incubated on a metal block at 4°C for 4 min to ensure even cooling, then 28°C for a further 4 min. Exflagellation was recorded by capturing 10 frames over 1 s under brightfield illumination using a x4 objective with a 1.5x zoom (effectively x6) attached to an automated Nikon Ti fluorescence microscope. After recording exflagellation, plates were incubated for a further 24 h in the dark at 28°C to ensure maximal expression of Pfs25 by female gametes. The plates were then returned to the microscope and female gametes imaged at x6 using fluorescence microscopy.
(§3) Exflagellation centres and female gametes were quantified using custom image analysis pipelines developed within ICY Bioimage Analysis (https://icy.bioimageanalysis.org/).

[2] = test system: P. falciparum female gametocytes; assay: P. falciparum Dual Gamete Formation Assay (PfDGFA), female readout (Pfs25-positive female gametes); assay type: cell-based, Plasmodium falciparum NF54; conditions: for Selectivity ratio F: HepG2 Tox50 versus female IC50; for inhibition at 2 µM / IC50: Plasmodium falciparum; for IC50: PfDGFA, 24 h incubation with gametocytes before induction, female gamete readout, read-out: Female IC50
Protocol: as §1, §2, §3

[3] = 2µM, 24h preincubation with gametocytes prior to induction of gametogenesis, average of replicates
[4] = 2µM, 24h preincubation with gametocytes prior to induction of gametogenesis, replicate R1
[5] = 2µM, 24h preincubation with gametocytes prior to induction of gametogenesis, replicate R3
[6] = 2µM, 24h preincubation with gametocytes prior to induction of gametogenesis, replicate R4
[7] = 2µM, 24h preincubation, hits selected on >50% inhibition in the male readout across replicates
[8] = PfDGFA at 2µM, 24h preincubation
[9] = 2µM, 24h preincubation, hits selected on >50% inhibition in the female readout across replicates
[10] = PfDGFA at 2µM, 24h preincubation with gametocytes prior to induction of gametogenesis, replicate R1
[11] = PfDGFA at 2µM, 24h preincubation with gametocytes prior to induction of gametogenesis, replicate R4
[12] = PfDGFA at 2µM, 24h preincubation, average of replicates
[13] = PfDGFA at 2µM, 24h preincubation with gametocytes prior to induction of gametogenesis, replicate R3
[14] = 2µM, 24h preincubation, number of replicates with >50% inhibition in the male readout
[15] = 2µM, 24h preincubation, number of replicates with >50% inhibition in the female readout

SMILES	Average inhibition male (%) [1, 3] [%]	% inhibition male (individual replicates) R1 [1, 4] [%]	% inhibition male (individual replicates) R3 [1, 5] [%]	% inhibition male (individual replicates) R4 [1, 6] [%]	HitlevelM [1, 7]	Activity [1, 8]	Average inhibition female (%) [2, 3] [%]	% inhibition female (individual replicates) R1 [2, 4] [%]	% inhibition female (individual replicates) R3 [2, 5] [%]	% inhibition female (individual replicates) R4 [2, 6] [%]	HitlevelF [2, 9]	% inhibition male (individual replicates) R1 [1, 10] [%]	% inhibition male (individual replicates) R4 [1, 11] [%]	Average inhibition male (%) [1, 12] [%]	% inhibition female (individual replicates) R1 [2, 10] [%]	% inhibition female (individual replicates) R3 [2, 13] [%]	% inhibition female (individual replicates) R4 [2, 11] [%]	Average inhibition female (%) [2, 12] [%]	other results
FC(F)(F)c1cccc(NC(=S)NN=Cc2ccccn2)c1 [TCMDC-123509]	–	–	–	–	–	–	–	–	–	–	–	–	–	–	–	–	–	–	Selectivity Ratio M [1]: 143.09; inhibition at 2 µM ([1]; 2µM, 24h preincubation with gametocytes, average of replicates, read-out: Average inhibition male (%)): 94.6%; inhibition at 2 µM ([1]; 2µM, 24h preincubation with gametocytes, replicate R1, read-out: % inhibition male (individual replicates) R1): 103%; inhibition at 2 µM ([1]; 2µM, 24h preincubation with gametocytes, replicate R2, read-out: % inhibition male (individual replicates) R2): 94.6%; inhibition at 2 µM ([1]; 2µM, 24h preincubation with gametocytes, replicate R3, read-out: % inhibition male (individual replicates) R3): 102%; inhibition at 2 µM ([1]; 2µM, 24h preincubation with gametocytes, replicate R4, read-out: % inhibition male (individual replicates) R4): 79.6%; IC50 [1]: 700 nM; Selectivity ratio F [2]: 142.25; inhibition at 2 µM ([2]; 2µM, 24h preincubation with gametocytes, average of replicates, read-out: Average inhibition female (%)): 50.5%; inhibition at 2 µM ([2]; 2µM, 24h preincubation with gametocytes, replicate R1, read-out: % inhibition female (individual replicates) R1): 35.3%; inhibition at 2 µM ([2]; 2µM, 24h preincubation with gametocytes, replicate R2, read-out: % inhibition female (individual replicates) R2): 76.8%; inhibition at 2 µM ([2]; 2µM, 24h preincubation with gametocytes, replicate R3, read-out: % inhibition female (individual replicates) R3): 45%; inhibition at 2 µM ([2]; 2µM, 24h preincubation with gametocytes, replicate R4, read-out: % inhibition female (individual replicates) R4): 45%; IC50 [2]: 700 nM
CC1(C)N=C(N)N=C(N)N1c1ccc(Oc2ccc(Cl)cc2)c(Cl)c1 [TCMDC-123522]	-4.1	6.1	-10.9	-16.5	0	0	4.9	11.0	16.4	-0.18	0	–	–	–	–	–	–	–	–
Cc1cc(N2CCN(C)CC2)nc2ccc(NC(=O)Cc3cccc(C(F)(F)F)c3)cc12 [TCMDC-123590]	–	–	–	–	–	–	–	–	–	–	–	6.9	-7.6	3.5	1.4	3.7	-0.7	2.2	–
Cc1ccc(-c2nc3cc(NC(=O)c4ccc([N+](=O)[O-])o4)ccc3o2)cc1Cl [TCMDC-123657]	5.4	3.2	-3.8	12.9	0	0	15.9	10.9	11.0	33.8	0	–	–	–	–	–	–	–	–
CC(=O)c1cccc(S(=O)(=O)NCCCNc2nc3cc(C)cc(C)c3cc2C#N)c1 [TCMDC-123734]	-13.5	-6.4	-3.8	-42.5	0	0	6.2	1.3	-13.6	33.9	0	–	–	–	–	–	–	–	–
COc1ccc(C2CC(c3cccs3)=NN2C(=O)c2ccccc2)cc1OC (centres unmarked) [TCMDC-123755]	–	–	–	–	–	–	–	–	–	–	–	-16.5	27.6	0.438	2.3	-20.6	-7.2	-3.5	% inhibition male (individual replicates) R3 [1, 13]: -10.3%
OC1CCN(c2cc(-c3ccccn3)nc(-c3ccccn3)n2)CC1 [TCMDC-123786]	–	–	–	–	–	–	–	–	–	–	–	-14.8	-28.8	-7.4	-1.4	-6.8	3.7	0.215	–
Cc1cc(C(=O)OCC(=O)Nc2c(C)n(C)n(-c3ccccc3)c2=O)c(C)n1-c1ccc(F)cc1 [TCMDC-123794]	–	–	–	–	–	–	–	–	–	–	–	–	–	–	–	–	–	–	HitlevelM [1, 14]: 3; Selectivity Ratio M [1]: 52.65; inhibition at 2 µM ([1]; 2µM, 24h preincubation with gametocytes prior to induction of gametogenesis, average of replicates, read-out: Average inhibition male (%)): 57.2%; inhibition at 2 µM ([1]; 2µM, 24h preincubation with gametocytes prior to induction of gametogenesis, replicate R1, read-out: % inhibition male (individual replicates) R1): 63.3%; inhibition at 2 µM ([1]; 2µM, 24h preincubation with gametocytes prior to induction of gametogenesis, replicate R2, read-out: % inhibition male (individual replicates) R2): 40.1%; inhibition at 2 µM ([1]; 2µM, 24h preincubation with gametocytes prior to induction of gametogenesis, replicate R3, read-out: % inhibition male (individual replicates) R3): 55.8%; inhibition at 2 µM ([1]; 2µM, 24h preincubation with gametocytes prior to induction of gametogenesis, replicate R4, read-out: % inhibition male (individual replicates) R4): 69.6%; IC50 [1]: 1900 nM; HitlevelF [2, 15]: 2; Selectivity ratio F [2]: 69.69; inhibition at 2 µM ([2]; 2µM, 24h preincubation with gametocytes prior to induction of gametogenesis, average of replicates, read-out: Average inhibition female (%)): 48.8%; inhibition at 2 µM ([2]; 2µM, 24h preincubation with gametocytes prior to induction of gametogenesis, replicate R1, read-out: % inhibition female (individual replicates) R1): 29.7%; inhibition at 2 µM ([2]; 2µM, 24h preincubation with gametocytes prior to induction of gametogenesis, replicate R2, read-out: % inhibition female (individual replicates) R2): 52.6%; inhibition at 2 µM ([2]; 2µM, 24h preincubation with gametocytes prior to induction of gametogenesis, replicate R3, read-out: % inhibition female (individual replicates) R3): 40.8%; inhibition at 2 µM ([2]; 2µM, 24h preincubation with gametocytes prior to induction of gametogenesis, replicate R4, read-out: % inhibition female (individual replicates) R4): 72.3%; IC50 [2]: 1430 nM
N#CCSc1nnc(-c2ccccc2)c2ccccc12 [TCMDC-123867]	–	–	–	–	–	–	–	–	–	–	–	-3.0	-3.8	1.3	9.7	-27.1	6.9	-4.3	% inhibition male (individual replicates) R3 [1, 13]: 10.5%
CC1(C)N=C(N)N=C(N)N1c1ccc(Br)cc1.Cl [TCMDC-123959]	-8.5	15.3	4.6	-63.1	–	–	18.2	15.6	12.6	26.1	–	–	–	–	–	–	–	–	HitlevelM [1, 14]: 0; HitlevelF [2, 15]: 0
CC1(C)N=C(N)N=C(N)N1c1cccc(Cl)c1.Cl [TCMDC-123960]	–	–	–	–	–	–	–	–	–	–	–	4.7	-9.8	3.0	5.3	-21.5	5.4	-0.8	% inhibition male (individual replicates) R3 [1, 13]: -1.4%
Br.C[C@@H](COc1ccc(-c2ccccc2)cc1)CON1C(N)=NC(N)=NC1(C)C [TCMDC-124029]	12.1	13.7	-5.2	7.3	0	0	5.2	-6.6	32.8	-1.3	0	–	–	–	–	–	–	–	–
